For experiment [1], the target named is T1, Alpha-2A adrenergic receptor (Homo sapiens, UniProt P08913).
T1 sequence (P08913 whole entry): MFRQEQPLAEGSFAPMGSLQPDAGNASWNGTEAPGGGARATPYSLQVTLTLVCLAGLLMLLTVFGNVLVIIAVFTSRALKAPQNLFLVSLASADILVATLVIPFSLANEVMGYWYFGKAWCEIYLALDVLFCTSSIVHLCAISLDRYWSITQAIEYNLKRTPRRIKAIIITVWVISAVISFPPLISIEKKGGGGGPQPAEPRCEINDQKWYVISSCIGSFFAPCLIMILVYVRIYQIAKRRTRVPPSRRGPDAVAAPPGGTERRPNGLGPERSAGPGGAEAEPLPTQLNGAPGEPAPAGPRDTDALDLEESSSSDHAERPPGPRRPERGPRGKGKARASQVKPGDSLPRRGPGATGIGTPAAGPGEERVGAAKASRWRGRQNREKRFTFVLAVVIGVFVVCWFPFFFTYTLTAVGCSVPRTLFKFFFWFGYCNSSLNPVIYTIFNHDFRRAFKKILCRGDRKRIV
The format is functional, cell-based.

The target of experiment [2] is T2, 5-hydroxytryptamine receptor 1A (Homo sapiens, UniProt P08908).
T2 sequence (P08908 whole entry): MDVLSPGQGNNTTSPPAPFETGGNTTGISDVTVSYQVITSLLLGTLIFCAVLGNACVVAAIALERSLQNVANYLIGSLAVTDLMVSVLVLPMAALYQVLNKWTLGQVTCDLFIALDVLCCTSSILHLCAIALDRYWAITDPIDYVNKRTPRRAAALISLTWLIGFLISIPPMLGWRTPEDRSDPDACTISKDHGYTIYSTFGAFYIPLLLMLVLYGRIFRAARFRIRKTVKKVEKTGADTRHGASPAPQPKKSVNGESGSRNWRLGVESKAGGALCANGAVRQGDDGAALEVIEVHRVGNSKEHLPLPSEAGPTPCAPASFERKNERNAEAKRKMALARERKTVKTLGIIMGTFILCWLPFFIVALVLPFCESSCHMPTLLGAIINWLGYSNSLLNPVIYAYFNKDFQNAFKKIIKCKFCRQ
The format is functional, cell-based.

Experiment [3] has as its target T3, Alpha-1A adrenergic receptor (Homo sapiens, UniProt P35348).
T3 sequence (P35348 whole entry): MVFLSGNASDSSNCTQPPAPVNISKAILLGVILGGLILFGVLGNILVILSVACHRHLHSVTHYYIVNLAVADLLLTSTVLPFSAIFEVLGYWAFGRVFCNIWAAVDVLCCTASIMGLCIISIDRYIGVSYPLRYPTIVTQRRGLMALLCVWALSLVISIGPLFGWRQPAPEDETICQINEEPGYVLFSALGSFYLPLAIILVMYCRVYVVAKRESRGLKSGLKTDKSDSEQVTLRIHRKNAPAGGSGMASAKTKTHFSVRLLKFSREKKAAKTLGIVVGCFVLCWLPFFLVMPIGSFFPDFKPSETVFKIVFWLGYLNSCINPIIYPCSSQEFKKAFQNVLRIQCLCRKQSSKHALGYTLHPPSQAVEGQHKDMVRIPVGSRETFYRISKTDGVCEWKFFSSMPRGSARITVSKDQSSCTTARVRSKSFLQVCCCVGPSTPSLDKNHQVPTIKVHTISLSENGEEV
The format is functional, cell-based.

The next experiment concerns the target D(1A) dopamine receptor (Homo sapiens, UniProt P21728). The experiment is classed as functional, cell-based.
For another experiment, the target named is Histamine H1 receptor (Homo sapiens, UniProt P35367).
Sequence of Histamine H1 receptor (P35367 whole entry): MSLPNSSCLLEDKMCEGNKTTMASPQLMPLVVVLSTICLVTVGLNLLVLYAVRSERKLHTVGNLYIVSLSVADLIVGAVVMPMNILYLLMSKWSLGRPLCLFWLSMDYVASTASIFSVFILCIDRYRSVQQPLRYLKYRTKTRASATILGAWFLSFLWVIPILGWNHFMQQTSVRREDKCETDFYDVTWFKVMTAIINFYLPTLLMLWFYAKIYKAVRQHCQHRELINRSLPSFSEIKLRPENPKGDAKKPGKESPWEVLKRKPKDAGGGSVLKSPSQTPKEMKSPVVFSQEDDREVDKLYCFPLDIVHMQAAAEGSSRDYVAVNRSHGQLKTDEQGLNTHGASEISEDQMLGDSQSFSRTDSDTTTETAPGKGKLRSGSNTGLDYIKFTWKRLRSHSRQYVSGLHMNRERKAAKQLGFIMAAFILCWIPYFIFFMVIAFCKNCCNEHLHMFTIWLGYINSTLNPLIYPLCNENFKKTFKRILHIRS
Experiment [4] has as its target T4, Muscarinic acetylcholine receptor M1 (Homo sapiens, UniProt P11229).
T4 sequence (P11229 whole entry): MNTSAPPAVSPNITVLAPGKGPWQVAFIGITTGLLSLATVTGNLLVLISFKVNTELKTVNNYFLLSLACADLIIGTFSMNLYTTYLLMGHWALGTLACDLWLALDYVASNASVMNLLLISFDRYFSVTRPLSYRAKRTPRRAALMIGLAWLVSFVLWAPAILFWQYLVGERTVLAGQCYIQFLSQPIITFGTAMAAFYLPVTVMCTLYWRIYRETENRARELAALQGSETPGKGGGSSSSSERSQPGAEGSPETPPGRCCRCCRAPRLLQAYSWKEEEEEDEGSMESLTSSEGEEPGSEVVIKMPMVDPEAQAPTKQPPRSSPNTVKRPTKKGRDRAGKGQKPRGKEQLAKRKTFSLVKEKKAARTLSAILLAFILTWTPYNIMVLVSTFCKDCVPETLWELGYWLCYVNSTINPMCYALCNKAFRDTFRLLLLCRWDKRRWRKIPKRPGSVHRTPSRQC
The experiment is classed as functional.

Experiment [5] concerns the target T3, Alpha-1A adrenergic receptor. The experiment is classed as functional, cell-based. The source holds these as a separate data set.
The target of experiment [6] is 5-hydroxytryptamine receptor 2B (Homo sapiens, UniProt P41595). The experiment is classed as functional, cell-based.
Sequence of 5-hydroxytryptamine receptor 2B (P41595 whole entry): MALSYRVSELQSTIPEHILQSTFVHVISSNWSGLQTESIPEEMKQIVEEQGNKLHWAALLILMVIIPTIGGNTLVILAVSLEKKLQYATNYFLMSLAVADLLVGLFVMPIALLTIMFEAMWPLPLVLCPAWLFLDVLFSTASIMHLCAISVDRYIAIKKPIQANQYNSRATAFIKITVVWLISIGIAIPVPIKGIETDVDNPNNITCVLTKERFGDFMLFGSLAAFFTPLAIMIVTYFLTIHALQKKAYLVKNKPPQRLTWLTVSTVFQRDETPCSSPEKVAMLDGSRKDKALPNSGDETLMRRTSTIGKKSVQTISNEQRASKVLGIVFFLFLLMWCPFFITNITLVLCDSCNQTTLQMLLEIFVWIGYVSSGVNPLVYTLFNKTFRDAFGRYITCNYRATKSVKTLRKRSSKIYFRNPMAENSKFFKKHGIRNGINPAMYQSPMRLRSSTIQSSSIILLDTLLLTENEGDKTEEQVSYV
The next experiment has as its target T5, Adenosine receptor A3 (Homo sapiens, UniProt P0DMS8).
T5 sequence (P0DMS8 whole entry): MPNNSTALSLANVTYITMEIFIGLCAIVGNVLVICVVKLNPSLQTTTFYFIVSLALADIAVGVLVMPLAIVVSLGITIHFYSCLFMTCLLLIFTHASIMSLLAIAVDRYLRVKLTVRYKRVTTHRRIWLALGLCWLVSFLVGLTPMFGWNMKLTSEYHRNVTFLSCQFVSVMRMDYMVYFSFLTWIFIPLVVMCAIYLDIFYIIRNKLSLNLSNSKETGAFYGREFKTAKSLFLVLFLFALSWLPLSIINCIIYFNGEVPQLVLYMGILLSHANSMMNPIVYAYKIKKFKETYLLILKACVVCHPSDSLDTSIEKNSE

This is an account of results in ChEMBL document CHEMBL5291721, “A preclinical secondary pharmacology resource illuminates target-adverse drug reaction associations of marketed drugs” (Nat Commun, 2023).

Usually AC50 stands for the concentration at which the activity in the assay is half-maximal. High values mean weaker potency, low ones greater potency.
Also: assay procedure not described here.

Sequence of D(1A) dopamine receptor (P21728 whole entry): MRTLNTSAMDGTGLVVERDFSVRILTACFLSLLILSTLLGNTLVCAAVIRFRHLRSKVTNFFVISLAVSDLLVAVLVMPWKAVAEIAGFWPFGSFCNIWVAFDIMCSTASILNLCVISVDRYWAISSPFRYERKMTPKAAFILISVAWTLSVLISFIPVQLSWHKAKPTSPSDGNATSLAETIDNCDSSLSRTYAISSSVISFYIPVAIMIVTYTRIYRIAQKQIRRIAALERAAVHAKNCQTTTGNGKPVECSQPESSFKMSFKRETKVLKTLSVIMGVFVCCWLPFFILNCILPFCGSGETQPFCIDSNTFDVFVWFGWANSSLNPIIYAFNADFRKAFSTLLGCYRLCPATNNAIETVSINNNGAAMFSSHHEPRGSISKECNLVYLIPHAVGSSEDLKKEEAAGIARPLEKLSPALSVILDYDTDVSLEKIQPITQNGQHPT

Turning to `CO/N=C(\C(=O)N[C@@H]1C(=O)N2C(C(=O)OCOC(=O)C(C)(C)C)=C(C)CS[C@H]12)c1csc(N)n1`, the AC50 (in experiment [1]; in experiment [2]; in [3]; on D(1A) dopamine receptor; at Histamine H1 receptor; in [4]) was over 30 µM each time. For the same molecule, the AC50 in experiment [5] and in experiment [6] was over 30 µM in each case.
With `NS(=O)(=O)c1cc(-c2nnn[nH]2)c(NCc2cccs2)cc1Cl` [AZOSEMIDE], the AC50 (in [1]; in experiment [2]; in [3]; on D(1A) dopamine receptor; at Histamine H1 receptor; in [4]) was over 30 µM throughout. Also, the AC50 (at Adenosine receptor A3; in [5]; in [6]) was over 30 µM each time.
Consider `O=C(Cn1ccnc1[N+](=O)[O-])NCc1ccccc1` [BENZNIDAZOLE], for which the AC50 (in experiment [1]; in [2]; in [3]; on D(1A) dopamine receptor; on Histamine H1 receptor; in experiment [4]) was over 30 µM in each case. Besides, the AC50 (on Adenosine receptor A3; in [5]; in experiment [6]) was over 30 µM in each case.
As to `CCCC(=O)N1CCCN(c2nc(N)c3cc(OC)c(OC)cc3n2)CC1` [BUNAZOSIN], the AC50 (in experiment [1]; in experiment [2]; at D(1A) dopamine receptor; on Histamine H1 receptor; in experiment [4]; on Adenosine receptor A3) was over 30 µM throughout. In addition, the concentration at half-maximal activity (AC50) in experiment [5] and in experiment [6] was over 30 µM throughout.
On to `C[N+](C)(C)CCOC(N)=O` [CARBAMOYLCHOLINE], for which the AC50 was over 30 µM in experiment [1]; 5.95 µM in [2]; over 30 µM in experiment [3]; over 30 µM on D(1A) dopamine receptor; over 10 µM on Adenosine receptor A3; over 30 µM in experiment [5]. In experiment [6], this molecule returned an AC50 of over 30 µM.
Regarding `COCC1=C(C(=O)OC(C)OC(=O)OC(C)C)N2C(=O)[C@@H](NC(=O)/C(=N\OC)c3csc(N)n3)[C@H]2SC1` (some centres undefined) [CEFPODOXIME PROXETIL], the AC50 (in [1]; in [2]; in experiment [3]; on D(1A) dopamine receptor; at Histamine H1 receptor; in experiment [4]) was over 30 µM throughout. The concentration at half-maximal activity (AC50) in [5] and in experiment [6] was over 30 µM throughout.
On to `NS(=O)(=O)c1cc2c(cc1Cl)NC(CC1CCCC1)NS2(=O)=O` (centres undefined) [CYCLOPENTHIAZIDE], for which the AC50 (in [1]; in [2]; in [3]; at D(1A) dopamine receptor; at Histamine H1 receptor; in [4]) was over 30 µM each time. Further, the half-maximal activity concentration (AC50) in experiment [5] and in experiment [6] was over 30 µM each time.
For the molecule `CN(C)[C@@H]1C(O)=C(C(N)=O)C(=O)[C@@]2(O)C(O)=C3C(=O)c4c(O)ccc(Cl)c4[C@@H](O)[C@H]3C[C@@H]12` [DEMECLOCYCLINE], the concentration at half-maximal activity (AC50) (in experiment [1]; in experiment [2]; at D(1A) dopamine receptor; at Histamine H1 receptor; in [4]; on Adenosine receptor A3) was over 10 µM each time. The same molecule showed a half-maximal activity concentration (AC50) in experiment [6] of over 10 µM.
For `N/N=c1/cc2c(n[nH]1)CCN(C(=O)c1ccccc1)C2` [ENDRALAZINE], the AC50 (in experiment [1]; in experiment [2]; in experiment [3]; at D(1A) dopamine receptor; at Histamine H1 receptor; in experiment [4]) was over 30 µM throughout. The concentration at half-maximal activity (AC50) in experiment [5] and in experiment [6] was over 30 µM throughout.
`CN(CCCN1c2ccccc2CCc2ccccc21)CC(=O)c1ccc(Cl)cc1` [LOFEPRAMINE]: the half-maximal activity concentration (AC50) is over 30 µM in [1]; over 30 µM in experiment [2]; 4.4 µM in [3]; over 30 µM on D(1A) dopamine receptor; 0.65 µM on Histamine H1 receptor; 18 µM on Adenosine receptor A3. For the same molecule, the concentration at half-maximal activity (AC50) in experiment [5] and in experiment [6] was over 30 µM each time.
On to `CN1C(=O)N(C)C2C1N(C)C(=O)N2C` (centres undefined) [MEBICAR], for which the AC50 (in experiment [1]; in [2]; in [3]; on D(1A) dopamine receptor; on Histamine H1 receptor; in experiment [4]) was over 30 µM each time. The AC50 in [5] and in [6] was over 30 µM in each case.
Regarding `CC(=O)O[C@]1(C(C)=O)CC[C@H]2[C@@H]3C[C@H](C)C4=CC(=O)CC[C@]4(C)[C@H]3CC[C@@]21C` [MEDROXYPROGESTERONE ACETATE], the AC50 at Adenosine receptor A3 is over 30 µM.
Turning to `Nc1ccc(/N=N/c2ccccc2)c(N)n1` [PHENAZOPYRIDINE], the concentration at half-maximal activity (AC50) in experiment [1] is over 30 µM; in [3], over 30 µM; on D(1A) dopamine receptor, over 30 µM; on Histamine H1 receptor, 4.5 µM; in experiment [4], 4.1 µM; in experiment [5], over 30 µM. In experiment [6], this molecule showed an AC50 of 24 µM.
As to `CN(C)CCCN1c2ccccc2Sc2ccccc21` [PROMAZINE], the half-maximal activity concentration (AC50) is over 10 µM in experiment [1]; over 10 µM in experiment [2]; 0.141 µM in experiment [3]; over 10 µM on D(1A) dopamine receptor; over 30 µM at Adenosine receptor A3; over 30 µM in experiment [5]. The activity in [6] was half-maximal at 5.7 µM (AC50).
Consider `O=P(O)(O)C(O)(Cc1cccnc1)P(=O)(O)O` [RISEDRONIC ACID], for which the half-maximal activity concentration (AC50) (in experiment [1]; in [2]; in experiment [3]; at D(1A) dopamine receptor; at Adenosine receptor A3; in experiment [5]) was over 30 µM in each case. Besides, in experiment [6], the AC50 was over 30 µM.
On to `O=C1CCC(N2C(=O)c3ccccc3C2=O)C(=O)N1` (centres undefined) [THALIDOMIDE], for which the half-maximal activity concentration (AC50) in experiment [1] is over 10 µM; in experiment [2] it was over 10 µM; in [3] it was over 30 µM; at D(1A) dopamine receptor, over 10 µM; at Adenosine receptor A3, over 30 µM; in [5], over 30 µM. Also, in experiment [6], the concentration at half-maximal activity (AC50) is over 10 µM.
With `CC(=O)N[C@H]1[C@H]([C@H](O)[C@H](O)CO)OC(C(=O)O)=C[C@@H]1N=C(N)N` [ZANAMIVIR], the AC50 in experiment [1] was over 10 µM; in [2], over 30 µM; on D(1A) dopamine receptor, over 30 µM; on Histamine H1 receptor it was over 30 µM; in experiment [4], over 30 µM; on Adenosine receptor A3, over 30 µM. For the same molecule, in experiment [6], the half-maximal activity concentration (AC50) is over 30 µM.
